Experimental data reported in the supplement of paper PMC12463676, “Small-molecule dissolution of stress granules by redox modulation benefits ALS models” (Nature Chemical Biology, 2025).

Tests used:
[1] = compound: NC(=O)CCCCC1CCSS1 [lipoamide]; assay: thermal stability z-score vs DMSO; higher = more thermally stabilized by treatment; settings: HeLa, lipoamide concentration 100 µM
Method: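 Cellular thermal proteome profiling in HeLa cells. Cells were treated with 100 µM lipoamide for 1 h, with or without 1 mM arsenate for a further 1 h, then heated to ten temperatures (37-66.3 °C), and soluble protein was quantified by TMT mass spectrometry relative to 0.1% DMSO controls. The thermal stability score (sum of log2 fold changes minus the abundance score) was transformed to a z-score; mean of n = 3 experiments.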

[2] = compound: O=[As]([O-])(O)O.[K+] [potassium arsenate]; assay: as above; settings: HeLa; arsenate concentration 1 mM
Method: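 Cellular thermal proteome profiling in HeLa cells treated with 1 mM arsenate for 1 h (DMSO pretreatment), heated to ten temperatures (37-66.3 °C). Soluble protein was quantified by TMT mass spectrometry relative to DMSO controls; the thermal stability score was transformed to a z-score; mean of n = 3 experiments.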

[3] = arsenate co-treatment: 1 mM arsenate 1 h
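Also: each temperature applied for 3 min, abundance score taken as mean log2 fold change at the two lowest temperatures, z-score obtained by mean subtraction and division by SD.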

Chain of UniProt Q13615 (Q13615 whole entry): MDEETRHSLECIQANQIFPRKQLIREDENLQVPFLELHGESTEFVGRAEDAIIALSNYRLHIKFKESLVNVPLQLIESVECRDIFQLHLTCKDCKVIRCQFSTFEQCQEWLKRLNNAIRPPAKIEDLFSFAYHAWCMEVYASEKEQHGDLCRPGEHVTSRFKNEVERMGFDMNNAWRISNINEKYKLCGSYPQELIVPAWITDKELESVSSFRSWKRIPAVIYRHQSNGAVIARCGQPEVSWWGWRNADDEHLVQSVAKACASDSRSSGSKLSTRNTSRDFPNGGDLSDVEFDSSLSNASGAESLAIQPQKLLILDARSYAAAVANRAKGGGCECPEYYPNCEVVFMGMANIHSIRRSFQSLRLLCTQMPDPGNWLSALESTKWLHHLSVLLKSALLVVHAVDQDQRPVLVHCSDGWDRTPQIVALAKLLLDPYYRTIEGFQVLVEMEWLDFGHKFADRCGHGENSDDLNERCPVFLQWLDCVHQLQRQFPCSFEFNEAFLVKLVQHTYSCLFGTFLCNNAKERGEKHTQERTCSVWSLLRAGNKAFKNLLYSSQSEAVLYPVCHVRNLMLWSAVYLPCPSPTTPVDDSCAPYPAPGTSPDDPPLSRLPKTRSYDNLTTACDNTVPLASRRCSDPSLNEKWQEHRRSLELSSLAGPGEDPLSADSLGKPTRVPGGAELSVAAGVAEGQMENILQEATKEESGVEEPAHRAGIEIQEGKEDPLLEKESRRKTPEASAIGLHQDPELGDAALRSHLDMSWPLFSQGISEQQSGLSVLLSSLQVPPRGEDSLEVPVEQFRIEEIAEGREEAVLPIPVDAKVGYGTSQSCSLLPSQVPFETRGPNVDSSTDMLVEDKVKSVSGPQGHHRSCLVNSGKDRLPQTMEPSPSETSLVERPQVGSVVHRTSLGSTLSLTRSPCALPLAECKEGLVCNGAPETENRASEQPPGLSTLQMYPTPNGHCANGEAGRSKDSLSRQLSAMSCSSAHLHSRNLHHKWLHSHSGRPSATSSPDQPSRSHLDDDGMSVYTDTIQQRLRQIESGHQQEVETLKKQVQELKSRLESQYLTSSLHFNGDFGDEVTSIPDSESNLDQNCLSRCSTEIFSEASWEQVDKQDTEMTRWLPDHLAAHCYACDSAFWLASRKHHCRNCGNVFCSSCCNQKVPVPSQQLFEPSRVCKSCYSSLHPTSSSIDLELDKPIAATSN
Chain of UniProt Q15154 (Q15154 whole entry): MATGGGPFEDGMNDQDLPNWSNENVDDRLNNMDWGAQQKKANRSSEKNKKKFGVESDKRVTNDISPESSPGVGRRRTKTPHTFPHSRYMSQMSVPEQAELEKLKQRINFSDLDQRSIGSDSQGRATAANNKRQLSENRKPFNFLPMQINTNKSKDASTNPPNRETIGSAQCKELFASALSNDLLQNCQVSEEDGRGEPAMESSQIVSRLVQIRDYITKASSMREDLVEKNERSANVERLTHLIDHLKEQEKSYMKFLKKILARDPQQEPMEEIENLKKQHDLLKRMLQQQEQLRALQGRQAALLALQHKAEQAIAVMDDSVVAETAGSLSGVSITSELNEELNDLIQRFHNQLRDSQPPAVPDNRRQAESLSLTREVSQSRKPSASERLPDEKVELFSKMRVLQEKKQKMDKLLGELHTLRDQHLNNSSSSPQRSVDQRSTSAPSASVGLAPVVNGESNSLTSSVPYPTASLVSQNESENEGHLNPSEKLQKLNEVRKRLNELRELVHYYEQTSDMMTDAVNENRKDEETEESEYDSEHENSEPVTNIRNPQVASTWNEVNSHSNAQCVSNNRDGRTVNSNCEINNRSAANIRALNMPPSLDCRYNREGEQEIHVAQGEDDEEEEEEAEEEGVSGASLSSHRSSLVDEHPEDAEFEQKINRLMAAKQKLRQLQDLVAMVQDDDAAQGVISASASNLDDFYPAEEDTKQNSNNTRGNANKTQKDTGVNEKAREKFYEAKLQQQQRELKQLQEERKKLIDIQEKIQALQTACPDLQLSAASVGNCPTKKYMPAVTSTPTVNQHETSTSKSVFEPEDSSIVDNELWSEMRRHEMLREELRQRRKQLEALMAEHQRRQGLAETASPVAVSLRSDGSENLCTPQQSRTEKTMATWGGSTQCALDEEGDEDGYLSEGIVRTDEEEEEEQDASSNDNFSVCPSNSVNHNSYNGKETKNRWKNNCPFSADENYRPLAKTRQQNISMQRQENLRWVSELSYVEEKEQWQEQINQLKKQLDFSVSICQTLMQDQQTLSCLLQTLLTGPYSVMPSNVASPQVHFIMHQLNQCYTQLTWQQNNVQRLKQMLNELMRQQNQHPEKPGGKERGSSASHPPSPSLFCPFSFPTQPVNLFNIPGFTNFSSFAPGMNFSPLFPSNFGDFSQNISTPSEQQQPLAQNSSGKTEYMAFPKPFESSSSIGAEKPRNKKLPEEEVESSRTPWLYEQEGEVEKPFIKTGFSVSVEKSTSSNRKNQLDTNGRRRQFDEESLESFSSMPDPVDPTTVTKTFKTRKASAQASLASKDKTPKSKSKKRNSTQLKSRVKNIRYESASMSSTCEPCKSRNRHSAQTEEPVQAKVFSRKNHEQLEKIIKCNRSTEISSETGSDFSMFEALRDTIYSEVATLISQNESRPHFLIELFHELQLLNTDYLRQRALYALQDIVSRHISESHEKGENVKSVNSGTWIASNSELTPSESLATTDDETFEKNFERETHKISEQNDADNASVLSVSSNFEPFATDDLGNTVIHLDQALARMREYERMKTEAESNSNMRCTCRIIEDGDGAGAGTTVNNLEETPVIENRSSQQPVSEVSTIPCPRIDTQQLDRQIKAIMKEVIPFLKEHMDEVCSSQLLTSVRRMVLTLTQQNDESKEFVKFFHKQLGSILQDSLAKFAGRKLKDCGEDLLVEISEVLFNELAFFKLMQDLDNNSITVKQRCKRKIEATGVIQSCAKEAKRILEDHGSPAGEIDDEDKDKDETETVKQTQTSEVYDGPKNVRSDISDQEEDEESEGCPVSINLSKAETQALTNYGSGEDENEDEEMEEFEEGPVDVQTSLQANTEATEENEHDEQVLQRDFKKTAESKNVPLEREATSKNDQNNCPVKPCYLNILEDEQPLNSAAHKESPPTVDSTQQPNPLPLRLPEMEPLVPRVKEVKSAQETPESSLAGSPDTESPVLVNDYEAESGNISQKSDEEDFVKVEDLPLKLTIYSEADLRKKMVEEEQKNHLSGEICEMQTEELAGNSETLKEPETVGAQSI
Chain of UniProt Q8NHG8 (Q8NHG8 whole entry): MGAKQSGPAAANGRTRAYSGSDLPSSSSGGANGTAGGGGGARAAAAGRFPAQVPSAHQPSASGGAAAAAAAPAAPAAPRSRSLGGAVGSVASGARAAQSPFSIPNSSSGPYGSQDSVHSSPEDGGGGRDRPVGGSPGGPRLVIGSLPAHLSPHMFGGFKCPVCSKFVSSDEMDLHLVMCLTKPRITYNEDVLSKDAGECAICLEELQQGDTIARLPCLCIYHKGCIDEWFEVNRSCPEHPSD
Chain of UniProt Q9BY42 (Q9BY42 whole entry): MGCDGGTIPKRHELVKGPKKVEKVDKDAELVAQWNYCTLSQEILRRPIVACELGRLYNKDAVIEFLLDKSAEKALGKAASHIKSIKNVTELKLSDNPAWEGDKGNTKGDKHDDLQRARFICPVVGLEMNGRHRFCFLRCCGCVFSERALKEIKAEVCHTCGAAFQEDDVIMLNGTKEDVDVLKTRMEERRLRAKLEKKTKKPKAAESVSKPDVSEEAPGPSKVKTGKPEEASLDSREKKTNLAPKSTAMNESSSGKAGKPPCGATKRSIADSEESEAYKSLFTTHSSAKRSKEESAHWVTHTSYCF
Chain of UniProt P35241 (P35241 whole entry): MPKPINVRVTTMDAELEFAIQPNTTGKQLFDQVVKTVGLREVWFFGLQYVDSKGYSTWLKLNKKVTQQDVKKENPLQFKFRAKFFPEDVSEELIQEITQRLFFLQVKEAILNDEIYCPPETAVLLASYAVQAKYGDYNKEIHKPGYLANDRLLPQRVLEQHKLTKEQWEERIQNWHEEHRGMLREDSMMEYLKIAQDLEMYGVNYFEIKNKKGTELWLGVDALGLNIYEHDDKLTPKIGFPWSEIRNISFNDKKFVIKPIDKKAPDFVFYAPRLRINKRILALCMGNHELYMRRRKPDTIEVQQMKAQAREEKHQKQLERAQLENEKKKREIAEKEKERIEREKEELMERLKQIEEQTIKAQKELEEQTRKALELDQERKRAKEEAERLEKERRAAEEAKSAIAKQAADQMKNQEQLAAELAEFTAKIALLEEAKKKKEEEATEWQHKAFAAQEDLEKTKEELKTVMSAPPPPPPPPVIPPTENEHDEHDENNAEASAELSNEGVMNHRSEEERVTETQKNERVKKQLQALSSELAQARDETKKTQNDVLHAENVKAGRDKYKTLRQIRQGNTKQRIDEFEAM
Chain of UniProt Q8TAA5 (Q8TAA5 whole entry): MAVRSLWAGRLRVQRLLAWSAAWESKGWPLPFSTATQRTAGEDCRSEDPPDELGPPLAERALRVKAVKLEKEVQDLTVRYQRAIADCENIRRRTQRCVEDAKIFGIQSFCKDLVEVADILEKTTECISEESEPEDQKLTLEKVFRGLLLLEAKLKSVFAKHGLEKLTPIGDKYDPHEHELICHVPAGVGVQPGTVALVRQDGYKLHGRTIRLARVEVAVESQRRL
Chain of UniProt P05114 (P05114 whole entry): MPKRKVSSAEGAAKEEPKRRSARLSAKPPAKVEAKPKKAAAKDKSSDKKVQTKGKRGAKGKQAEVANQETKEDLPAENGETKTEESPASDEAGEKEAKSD
Chain of UniProt Q9NXA8 (Q9NXA8 whole entry, looked up): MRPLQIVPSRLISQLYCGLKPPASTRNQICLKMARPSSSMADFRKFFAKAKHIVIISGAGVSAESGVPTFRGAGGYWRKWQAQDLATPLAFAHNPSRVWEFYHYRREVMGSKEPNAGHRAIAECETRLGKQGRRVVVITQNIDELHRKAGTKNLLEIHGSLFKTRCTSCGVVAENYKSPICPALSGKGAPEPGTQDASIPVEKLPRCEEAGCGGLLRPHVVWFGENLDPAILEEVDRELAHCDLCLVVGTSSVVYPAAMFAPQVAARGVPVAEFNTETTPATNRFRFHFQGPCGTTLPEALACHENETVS

Target	thermal stability z-score [1, 3]	thermal stability z-score ([1]; arsenate co-treatment: none)	thermal stability z-score [2]
SUPT5H (UniProt O00267)	0.685	-0.0241	-0.186
GRPEL2 (UniProt Q8TAA5)	-0.105	-0.123	0.107
ATP5O (UniProt P48047)	0.0702	-0.283	-0.119
SHKBP1 (UniProt Q8TBC3)	0.0505	0.242	-0.372
CYBA (UniProt P13498)	0.0672	0.232	0.653
ERGIC1 (UniProt Q969X5)	-1.39	-1.4	0.483
PSME4 (UniProt Q14997)	-0.196	-0.198	-0.412
TOR3A (UniProt Q9H497)	-1.02	-0.712	0.553
RPL23 (UniProt P62829)	0.548	-0.122	-0.839
BTF3L4 (UniProt Q96K17)	0.212	0.17	-0.154
UniProt H0YIV9|GATC	-0.219	-0.277	-0.0937
ALG10|ALG10B	0.489	-0.122	-0.0103
CEP290 (UniProt O15078)	0.613	0.238	0.0798
CERS2 (UniProt Q96G23)	-0.901	-1.12	-0.575
DLG1 (UniProt Q12959)	0.111	-0.207	-0.34
DYRK1A (UniProt Q13627)	-0.118	-0.0216	0.54
ENOPH1 (UniProt Q9UHY7)	0.0377	-0.118	-0.296
SHTN1 (UniProt A0MZ66)	1.1	0.75	1.25
RTFDC1 (UniProt Q9BY42)	-1.39	-0.367	-1.48
DCBLD2 (UniProt Q96PD2)	0.0564	0.109	-0.505
MRPL30 (UniProt Q8TCC3)	-0.325	0.266	0.112
LMAN2L (UniProt Q9H0V9)	-2.57	-1.5	0.373
FLJ13984|METTL8	-0.0305	-0.13	0.187
ENDOG (UniProt Q14249)	-1.25	-0.145	-0.245

Target	thermal stability z-score [1, 3]	thermal stability z-score ([1]; arsenate co-treatment: none)	thermal stability z-score [2]
ATP6V1A (UniProt P38606)	-0.368	-0.529	-0.613
NOP56 (UniProt O00567)	0.756	-0.0331	0.516
EIF2AK3 (UniProt Q9NZJ5)	-0.372	-0.109	-0.317
PAPD5 (UniProt Q8NDF8)	0.175	-0.0726	-0.0587
DNAJB6 (UniProt O75190)	1.19	0.248	0.728
USP32 (UniProt Q8NFA0)	-0.102	-0.19	-0.0527
IFI16 (UniProt Q16666)	0.022	0.122	-0.386
TMED3 (UniProt Q9Y3Q3)	-0.694	-0.398	0.316
AFG3L2 (UniProt Q9Y4W6)	-0.688	-0.0469	-0.123
LNP (UniProt Q9C0E8)	-1.09	-0.771	-0.997
LETMD1 (UniProt Q6P1Q0)	0.197	-0.0626	0.0642
SLC4A2 (UniProt P04920)	0.115	0.433	0.173
MBNL1 (UniProt Q9NR56)	-0.368	-0.277	-0.983
CEP44 (UniProt Q9C0F1)	0.18	0.0577	0.0867
UBE2E1 (UniProt P51965)	0.456	0.441	11.8
HMGN1 (UniProt P05114)	0.242	0.681	-0.289
C5ORF22 (UniProt Q49AR2)	-0.259	0.324	1.13
HAUS2 (UniProt Q9NVX0)	-0.143	-0.261	0.0695
SIRT5 (UniProt Q9NXA8)	-0.814	-1.26	-1.02
ACOT7 (UniProt O00154)	0.237	0.304	-0.151
STX4 (UniProt Q12846)	0.741	0.546	-0.199
CRNKL1 (UniProt Q9BZJ0)	0.288	0.156	-0.00401
PCM1 (UniProt Q15154)	-0.0188	-0.104	0.131
CKAP2 (UniProt Q8WWK9)	-0.00358	0.0789	-0.222

Target	thermal stability z-score [1, 3]	thermal stability z-score ([1]; arsenate co-treatment: none)	thermal stability z-score [2]
RPS28 (UniProt P62857)	0.574	0.243	-0.0195
ANP32E (UniProt Q9BTT0)	-1.1	0.32	-4
TSSC4 (UniProt Q9Y5U2)	1.17	0.668	-0.46
VPS25 (UniProt Q9BRG1)	-0.593	-0.349	0.0183
KLHDC3 (UniProt Q9BQ90)	0.45	-0.351	1.05
GTF2I (UniProt P78347)	-0.117	0.0929	-0.472
MND1 (UniProt Q9BWT6)	-0.235	-0.0119	0.296
SUMF1 (UniProt Q8NBK3)	-1	-0.419	-0.194
GABARAP (UniProt O95166)	-0.21	-0.417	-0.223
GLRX2 (UniProt Q9NS18)	1.4	1.7	3.8
GSK3B (UniProt P49841)	-0.109	-0.308	0.326
COMMD4 (UniProt Q9H0A8)	-0.113	-0.32	-0.322
FDXR (UniProt P22570)	-0.331	-0.428	0.404
MTMR3 (UniProt Q13615)	-0.301	-0.594	-1.04
OARD1 (UniProt Q9Y530)	0.407	0.708	-0.793
EXOC7 (UniProt Q9UPT5)	-0.927	-0.435	-0.227
FUCA2 (UniProt Q9BTY2)	-0.251	-0.214	1.09
RDX (UniProt P35241)	0.749	0.45	0.883
SF3B3 (UniProt Q15393)	1.49	0.828	-0.681
FANCI (UniProt Q9NVI1)	-0.722	-0.439	-1.2
GPAM (UniProt Q9HCL2)	1.02	-0.15	-0.448
SEZ6L2 (UniProt Q6UXD5)	0.143	2.4	3.82
ZNRF2 (UniProt Q8NHG8)	-0.729	-0.885	-2.6
